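Each compound was tested at five concentrations against cells in 96-well plates for 48 hours. TGI: total growth inhibition.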
How the values were obtained:
Test in all cases: growth of human tumour cells (NCI), 48 h
[1] = test system: HCT-15 colon
[2] = test system: SW-620 colon
[3] = test system: MCF7 breast
[4] = test system: SK-OV-3 ovarian
[5] = test system: UACC-257 melanoma
[6] = test system: A498 renal
[7] = test system: SNB-19 CNS
[8] = test system: OVCAR-5 ovarian
[9] = test system: HOP-92 NSCLC
[10] = test system: HS 578T breast
[11] = test system: SK-MEL-2 melanoma
[12] = test system: A549 NSCLC
[13] = test system: BT-549 breast
[14] = test system: K-562 leukemia
[15] = test system: T-47D breast
[16] = test system: KM12 colon
[17] = test system: UO-31 renal
[18] = test system: SR leukemia
[19] = test system: MDA-MB-231 breast
[20] = test system: COLO 205 colon
[21] = test system: LOX IMVI melanoma
[22] = test system: NCI-H460 lung
[23] = test system: RPMI-8226 leukemia
[24] = test system: SF-539 CNS
[25] = test system: HL-60(TB) leukemia
[26] = test system: NCI-H226 lung
[27] = test system: HCC-2998 colon
[28] = test system: SNB-75 CNS
[29] = test system: MOLT-4 leukemia
[30] = test system: OVCAR-3 ovarian
[31] = test system: OVCAR-4 ovarian
[32] = test system: HCT-116 colon
[33] = test system: SF-268 CNS
[34] = test system: NCI-H23 lung
[35] = test system: CAKI-1 renal
[36] = test system: OVCAR-8 ovarian
[37] = test system: 786-0 renal
[38] = test system: MDA-N
[39] = test system: DU-145 prostate
[40] = test system: U251 CNS
[41] = test system: SK-MEL-28 melanoma
[42] = test system: UACC-62 melanoma
[43] = test system: SK-MEL-5 melanoma
[44] = test system: ACHN renal
[45] = test system: SF-295 CNS
[46] = test system: HT29 colon
[47] = test system: SN12C renal
[48] = test system: RXF 393 renal
[49] = test system: M14 melanoma
[50] = test system: PC-3 prostate
[51] = test system: MDA-MB-435
[52] = test system: NCI/ADR-RES ovarian
[53] = test system: IGROV1 ovarian
[54] = test system: EKVX NSCLC
[55] = test system: TK-10 renal
[56] = test system: CCRF-CEM leukemia
[57] = test system: NCI-H522 lung
[58] = test system: MALME-3M melanoma
[59] = test system: HOP-62 NSCLC

## COC(=O)C(=O)C(C(=O)C(=O)Nc1ccc([N+](=O)[O-])cc1[N+](=O)[O-])c1nc2ccc(Cl)cc2[nH]c1=O (stereo not drawn)
[1]
  TGI: > 100 µM
[2]
  TGI: > 100 µM
[3]
  TGI: > 100 µM
[4]
  TGI: > 100 µM
[5]
  TGI: > 100 µM
[6]
  TGI: > 100 µM
[7]
  TGI: > 100 µM
[8]
  TGI: > 100 µM
[9]
  TGI: > 100 µM
[10]
  TGI: 90.8 µM
[11]
  TGI: > 100 µM
[12]
  TGI: > 100 µM
[13]
  TGI: > 100 µM
[14]
  TGI: > 100 µM
[15]
  TGI: > 100 µM
[16]
  TGI: > 100 µM
[17]
  TGI: > 100 µM
[18]
  TGI: > 100 µM
[19]
  TGI: > 100 µM
[20]
  TGI: > 100 µM
[21]
  TGI: > 100 µM
[22]
  TGI: > 100 µM
[23]
  TGI: > 100 µM
[24]
  TGI: > 100 µM
[25]
  TGI: > 100 µM
[26]
  TGI: > 100 µM
[27]
  TGI: > 100 µM
[28]
  TGI: 73.1 µM
[29]
  TGI: > 100 µM
[30]
  TGI: > 100 µM
[31]
  TGI: > 100 µM
[32]
  TGI: > 100 µM
[33]
  TGI: > 100 µM
[34]
  TGI: > 100 µM
[35]
  TGI: > 100 µM
[36]
  TGI: > 100 µM
[37]
  TGI: > 100 µM
[38]
  TGI: > 100 µM
[39]
  TGI: > 100 µM
[40]
  TGI: > 100 µM
[41]
  TGI: > 100 µM
[42]
  TGI: > 100 µM
[43]
  TGI: > 100 µM
[44]
  TGI: > 100 µM
[45]
  TGI: > 100 µM
[46]
  TGI: > 100 µM
[47]
  TGI: > 100 µM
[48]
  TGI: > 100 µM
[49]
  TGI: > 100 µM
[50]
  TGI: > 100 µM
[51]
  TGI: > 100 µM
[52]
  TGI: > 100 µM

## COC(=O)/C=C/CC(=O)NS(C)(=O)=O
[1]
  TGI: > 10 µM
[2]
  TGI: > 10 µM
[3]
  TGI: > 10 µM
[4]
  TGI: > 10 µM
[53]
  TGI: > 10 µM
[5]
  TGI: > 10 µM
[6]
  TGI: > 10 µM
[7]
  TGI: > 10 µM
[8]
  TGI: > 10 µM
[10]
  TGI: > 10 µM
[11]
  TGI: > 10 µM
[12]
  TGI: > 10 µM
[13]
  TGI: > 10 µM
[54]
  TGI: > 10 µM
[15]
  TGI: > 10 µM
[16]
  TGI: > 10 µM
[17]
  TGI: > 10 µM
[18]
  TGI: > 10 µM
[19]
  TGI: > 10 µM
[20]
  TGI: > 10 µM
[21]
  TGI: > 10 µM
[22]
  TGI: > 10 µM
[23]
  TGI: > 10 µM
[24]
  TGI: > 10 µM
[25]
  TGI: > 10 µM
[26]
  TGI: > 10 µM
[55]
  TGI: > 10 µM
[27]
  TGI: > 10 µM
[29]
  TGI: > 10 µM
[56]
  TGI: > 10 µM
[30]
  TGI: > 10 µM
[31]
  TGI: > 10 µM
[32]
  TGI: > 10 µM
[33]
  TGI: > 10 µM
[34]
  TGI: > 10 µM
[35]
  TGI: > 10 µM
[36]
  TGI: > 10 µM
[37]
  TGI: > 10 µM
[57]
  TGI: > 10 µM
[38]
  TGI: > 10 µM
[39]
  TGI: > 10 µM
[40]
  TGI: > 10 µM
[41]
  TGI: > 10 µM
[42]
  TGI: > 10 µM
[43]
  TGI: > 10 µM
[44]
  TGI: > 10 µM
[45]
  TGI: > 10 µM
[46]
  TGI: > 10 µM
[47]
  TGI: > 10 µM
[58]
  TGI: > 10 µM
[48]
  TGI: > 10 µM
[49]
  TGI: > 10 µM
[59]
  TGI: > 10 µM
[50]
  TGI: > 10 µM
[51]
  TGI: > 10 µM
[52]
  TGI: > 10 µM
